# Entries after “also recorded” stand apart in the source; their conditions may differ. Where two headings read alike, the source gives them in different places.
# Columns and labels:
# NF-κB activity = test: NF-κB luciferase reporter assay in MDA-MB-231 cells overexpressing Bcl-3; format: cell-based, human; settings: for effect on NF-κB activity: 1 μM, 24 hrs, MDA-MB-231 Bcl-3 over-expressing cells, vs DMSO control / Compound 1a; for IC50: Homo sapiens
# Method: For NF-κB luciferase assays, cells were seeded into clear bottom black 96-well plates (Corning Inc., Lowell, US) in antibiotic free culture media in appropriate density. After 24 hrs, cells were transfected with 10 ng of 3×κB luciferase plasmid and 10 ng of pcDNA3.1-Lacl plasmid per well. Empty pcDNA3.1 plasmid was also included to normalize the total weight of DNA transfected to 100 ng. For positive and negative controls respectively, 10 ng of pGL3control or pGL3basic were transfected in place of 3×KB luciferase plasmid. Transfection was carried out using Lipofectamine LTX reagents (Invitrogen, Paisley, UK).
# After 48 hrs post-transfection with luciferase reporter plasmid, the media was aspirated and cells were lyzed using 50 μl/well of Glo-lysis buffer (Promega, Southampton, UK). The plate was left on a rocker for 20 min to facilitate complete cell lysis. Then, 20 μl of lysate from each well was removed and transferred into a new clear bottom black well plate for measuring LacZ activity as a transfection efficiency control and followed by addition of 20 ul/well of Beta-Glo substrate (Promega, Southampton, UK) and cultivation at room temperature for at least 20 min. Subsequently, 30 μl/well of Bright-Glo luciferase substrate (Promega, Southampton, UK) was added to the original plate and asses immediately for luminescence activity. The luminescence produced from either reaction was read using a Flurostar Optima plate reader (BMG tabtech, Bucks, UK).
# The effect of Compound 1a on NF-κB activity was determined by NF-κB luciferase assay in MDA-MB-231 and HEK-293 cells overexpressing Bcl-3 and HEK-293 cells overexpressing p52. Cells were cultivated with Compound 1a over a range of molarities for 24 hrs before being transfected with NF-κB luciferase reporter plasmid for 48 hrs and analyzed for NF-κB activity.
# The effect of selected analogues on NF-κB activity was determined by NF-KB luciferase assay in MDA-MB-231 cells. MDA-MB-231 Bcl-3 over-expressing cells were cultivated with compounds from series 1-3 at 1 μM concentration for 24 hrs before being transfected with NF-κB luciferase reporter plasmid for 48 hrs together with controls and analyzed for NF-κB activity.
# Based on the results for the series of analogues, we have established dose response curve for selected analogues from series 1 (If), from series 2 (2a and 2c) and from series 3 (3a) over a range of molarities. MDA-MB-231 Bcl-3 WT cells were cultivated with selected compounds from series 1-3 over a range of molarities for 24 hrs before being transfected with NF-κB luciferase reporter plasmid for 48 hrs together with controls and analyzed for NF-κB activity (FIG. 7).
# [1] = tested on: MDA-MB-231 cells overexpressing Bcl-3; test: Boyden chamber cell motility assay; format: cell-based, human; settings: for IC50: Homo sapiens
# Method: The migratory or invasive capacity of human mammary cancer cell lines was assessed by the Boyden chamber assay. Cells were seeded in low serum media in a chamber with porous membrane (transparent polyethylene terephthalate (PET) membranes with 8 μm pores) as a solid support for motility assays or with a porous membrane coated with Matrigel Basement Membrane Matrix (BD BioCoat Growth factor reduced invasion chambers) for invasion assay. The cell insert was placed into a well with complete growth media, therefore cells are stimulated by a serum gradient to migrate or invade across the membrane through pores.
# Total of 750 μl of complete growth media containing 10% of serum was added to appropriate wells of a 24 well cell culture insert companion plate (BD Biosciences, Oxford, UK). A cell culture insert (BD Biosciences, Oxford, UK) was then carefully placed into each well of the insert companion plate using tweezers. Cells were detached from tissue culture plates using 0.25% w/v Trypsin/EDTA (Invitrogen) and centrifuged at 13000 rpm for 5 min. Cells were washed twice in serum free media by resuspension and centrifugation. The appropriate number of cells (2×10^5 cells/ml for MDA-MB-231 cells) was resuspended in normal growth media containing only 0.10% serum. 350 μl of the cell suspension was added to the appropriate upper chambers of the cell culture inserts and plates were incubated for 24 hrs at 37° C. and 5% CO2.
# After incubation, cells on membranes were fixed by replacing the media in the top and bottom sections of the chamber with 70% ice-cold ethanol (Fisher Scientific). Plates were incubated at −20° C. for at least an hour. After fixation, inserts were immersed in a tap water using tweezers to ensure all ethanol was removed. A moistened cotton wool bud was then used to mechanically remove all cells fixed on the upper side of the membranes. Cells were stained by individually immersing the inserts into filtered Harris' Haematoxylin (Sigma, Dorset, UK) for 1 min. Following this, inserts were washed in a beaker of tap water to remove the dye and immersed in 0.5% filtered Eosin (Sigma, Dorset, UK) for 2 min. Stained inserts were then washed again in a tap water.
# Glycerol Gelatin (Sigma, Dorset, UK) was heated in a beaker of boiling water and once liquefied, a drop was placed onto an appropriately labelled microscope slide (R. A. Lamb, Loughborough, UK). Membranes were cut out of the insert and transferred onto the corresponding slide with tweezers. Glycerol Gelatin was added to the top of the membranes and a cover slip was placed on the slide under firm pressure. Mounted slides were left to air dry before being analyzed.
# We therefore generated a dose response curve to determine an IC50 in this assay. MDA-MB-231 cells overexpressing Bcl-3 were cultivated with Compound 1a and DMSO control over a range of molarities for 24 hrs before being seeded onto Boyden migration chambers. The constant number of live cells present during this assay across samples was monitored by cell count.
# Therefore we wanted to establish whether designed analogues have similar or improved ability to suppress cell migration. MDA-MB-231 Bcl-3 over-expressing cells were cultivated with selected analogues (1f, 2a, 2c, 3a) and DMSO control over a range of molarities for 24 hrs before being seeded onto the Boyden motility chambers. Migrated cells were visualized and counted after 24 hrs. The dose response curves were generated using GraphPad software (FIG. 9). The constant number of live cells present during this assay across samples was monitored by cell count.
# [2] = Cell Titre Blue viability assay, HEK-293; format: cell-based; settings: human, HEK-293 cells, HEK-293, 10 μM, vs DMSO
# Excerpt: In all assays, a DMSO control was always used.
# [3] = MDA-MB-231 overexpressing Bcl-3, 24 hrs then reporter 48 hrs, read-out: IC50 NF-κB activity
# [4] = Table 3, MDA-MB-231, read-out: NF-κB assay (μM) IC50
# [5] = MDA-MB-231, Table 3, read-out: Cell motility assay (μM) IC50
# [6] = MDA-MB-231 overexpressing Bcl-3, 24 hrs pre-treatment, 24 hrs migration, read-out: IC50 cell motility (Boyden chamber)
# [7] = MDA-MB-231 Bcl-3 WT, 24 hrs then reporter 48 hrs, read-out: IC50 NF-κB activity
IC50 (NF-κB activity; [3]),IC50 (NF-κB activity; [4]),"IC50 [1, 5]","IC50 [1, 6]",IC50 (NF-κB activity; [7]),"IC50 ([1]; MDA-MB-231 overexpressing Bcl-3, read-out: IC50 cell motility (Boyden chamber))",Compound,effect on NF-κB activity (NF-κB activity),cell migration ([1]; 10 nM concentration),"viability at 24 h, 10 µM [2]","migration ability ([1]; MDA-MB-231 cells, 10 μM)"
0.00697 µM,0.00697 µM,0.0289 µM,0.0289 µM,,,"COc1ccc(C(=O)Nc2ccccc2C(=O)NCCN2CCOCC2)cc1 [Compound 1f, 2-[(4-methoxybenzoyl)amino]-N-(2-morpholin-4-ylethyl)benzamide]",significant decrease,below 50%,> 70%,
,2.5 µM,1.33 µM,,2.5 µM,1.33 µM,O=C(Nc1ccccc1C(=O)NCCCN1CCOCC1)c1ccccc1F [Compound 2a],significantly decreased NF-κB activity; also recorded: comparable activity with Compound 1a,,> 70%,
0.0494 µM,0.0454 µM,0.31 µM,0.31 µM,,,"O=C(Nc1ccccc1C(=O)NCCN1CCOCC1)c1ccccc1F [Compound 1a, 2-[(2-fluorobenzoyl)amino]-N-(2-morpholin-4-ylethyl)benzamide]",significant decrease; also recorded: most potent suppression of NF-κB activity,,> 70%,significantly suppressed migration ability
,1.07 µM,0.9 µM,0.9 µM,1.07 µM,,"COc1cccc(C(=O)NCCN2CCOCC2)c1NC(=O)c1ccccc1F [Compound 3a, 2-[(2-fluorobenzoyl)amino]-3-methoxy-N-(2-morpholin-4-ylethyl) benzamide]",comparable effect on NF-κB activity with Compound 1a,,> 70%,
